Test results as given in patent US6358969B1, “3-desmethylrapamycin or derivatives thereof, processes for their preparation and their use as antifungal agents and immunosuppressants” (SmithKline Beecham p.l.c., priority 1991, dated 2002).
In brackets after ≈: the same amount, converted by molar mass. Where two headings read alike, the source gives them in different places.

Key:
Type in all cases: cell-based
[1] = tested on: yeasts and filamentous fungi; test: Agar diffusion test, overall spectrum of activity; conditions: summary of Table 1
Experimental: (§1) Method—The spectrum of activity was determined by placing solutions of the compound, prepared in sodium phosphate buffer, pH 6.6, in wells in seeded Sabouraud's Dextrose Agar. Activity was assessed by measuring the zones of inhibition following incubation at 37° C. (yeasts and Aspergillus niger) or 30° C. (other filamentous fungi) for 24 hours.

Candida albicans 731079 = test: Minimal Inhibitory Concentration, broth microtitre dilution; conditions: 37° C., inoculum 10^5 cells/ml, read-out: Minimum Inhibitory Concentration (MIC)
Experimental: (§2) Method—The Minimal Inhibitory Concentration (MIC) was determined by diluting the compound in a broth medium in a microtitre tray. The organisms were diluted and added to the wells to provide a final inoculum of approximately 10^5 cells per ml or 10^4 fungal spores per ml. The trays were incubated at 37° C. and the turbidity of each well noted at intervals. The (MIC) was taken as the lowest concentration (in mg/ml) which prevented significant growth.

Aspergillus niger [2] = test: as above; conditions: 37° C., inoculum 10^4 spores/ml, read-out: Minimum Inhibitory Concentration (MIC)
Experimental: as §2

[3] = tested on: Hendersonula torulides TH65; test: Spectrum of activity, agar diffusion zones of inhibition; conditions: SAB agar, 24 hours, read-out: Zones of inhibition (diameter)
Experimental: as §1

[4] = tested on: Pityrosporum canis 0024RE; test: as above; conditions: SAB agar, 24 hours, read-out: Zones of inhibition (diameter)
Experimental: as §1

[5] = tested on: Crytococcus neoformans 451; test: as above; conditions: SAB agar, 24 hours, read-out: Zones of inhibition (diameter)
Experimental: as §1

[6] = tested on: Trichophyton mentagrophytes 569A; test: as above; conditions: SAB agar, 24 hours, read-out: Zones of inhibition (diameter)
Experimental: as §1

Saccharomyces cerevisiae = test: as above; conditions: SAB agar, 24 hours, read-out: Zones of inhibition (diameter)
Experimental: as §1

Paecilomyces varioti = test: as above; conditions: SAB agar, 24 hours, read-out: Zones of inhibition (diameter)
Experimental: as §1

Aspergillus niger [7] = test: as above; conditions: SAB agar, 24 hours, read-out: Zones of inhibition (diameter)
Experimental: as §1

Rhizopus oryzae 21602 = test: as above; conditions: Rhizopus arrhizus, SAB agar, 24 hours, read-out: Zones of inhibition (diameter)
Experimental: as §1

Candida albicans 73/079 = test: as above; conditions: SAB agar, 24 hours, read-out: Zones of inhibition (diameter)
Experimental: as §1

Candida albicans = test: Antifungal activity (stated characteristic of the compound)

SMILES: COC1CC2CCC(C)C(O)(O2)C(=O)C(=O)N2CCCCC2C(=O)OC(C(C)CC2CCC(O)C(OC)C2)CC(=O)C(C)/C=C(\C)C(O)C(O)C(=O)C(C)CC(C)/C=C/C=C/C=C/1C (stereo not drawn)
- Spectrum of activity in the agar diffusion test [1]: broad spectrum activity
- MIC (Candida albicans 731079; Candida albicans, 731079, 24 h, day 1 of incubation): 32 µg/mL (≈ 35.5 µM)
- MIC (Candida albicans 731079; Candida albicans, 731079, 48 h, day 2 of incubation): 32 µg/mL (≈ 35.5 µM)
- MIC (Aspergillus niger [2]; 24 h, day 1 of incubation): 16 µg/mL (≈ 17.8 µM)
- MIC (Aspergillus niger [2]; 48 h, day 2 of incubation): 32 µg/mL (≈ 35.5 µM)
- zone of inhibition at 100 µg/mL ([3]; CONC 100 μg/ml): 33 mm
- zone of inhibition at 500 µg/mL ([3]; CONC 500 μg/ml): 36 mm
- zone of inhibition at 100 µg/mL ([4]; CONC 100 μg/ml): 0 mm
- zone of inhibition at 500 µg/mL ([4]; CONC 500 μg/ml): 0 mm
- zone of inhibition at 100 µg/mL ([5]; CONC 100 μg/ml): 29 mm
- zone of inhibition at 500 µg/mL ([5]; CONC 500 μg/ml): 29 mm
- zone of inhibition at 100 µg/mL ([6]; CONC 100 μg/ml): 42 mm
- zone of inhibition at 500 µg/mL ([6]; CONC 500 μg/ml): 43 mm
- zone of inhibition at 100 µg/mL (Saccharomyces cerevisiae; CONC 100 μg/ml): 34 mm
- zone of inhibition at 500 µg/mL (Saccharomyces cerevisiae; CONC 500 μg/ml): 33 mm
- zone of inhibition at 100 µg/mL (Paecilomyces varioti; CONC 100 μg/ml): 26 mm
- zone of inhibition at 500 µg/mL (Paecilomyces varioti; CONC 500 μg/ml): 28 mm
- zone of inhibition at 100 µg/mL (Aspergillus niger [7]; CONC 100 μg/ml): 46 mm
- zone of inhibition at 500 µg/mL (Aspergillus niger [7]; CONC 500 μg/ml): 47 mm
- zone of inhibition at 100 µg/mL (Rhizopus oryzae 21602; CONC 100 μg/ml): 46 mm
- zone of inhibition at 500 µg/mL (Rhizopus oryzae 21602; CONC 500 μg/ml): 47 mm
- zone of inhibition at 100 µg/mL (Candida albicans 73/079; CONC 100 μg/ml): 29 mm
- zone of inhibition at 500 µg/mL (Candida albicans 73/079; CONC 500 μg/ml): 29 mm
- Antifungal activity against Candida albicans (Candida albicans): shows antifungal activity
